# Structures can show the parent of a compound that is named as a salt.
# Target: T1, recombinant human Itk kinase domain fused with GST (Homo sapiens, UniProt Q08881)
# T1 construct: recombinant human Itk kinase domain fused with GST; GST (Glutathione S-Transferase); made in house; host or cells: High five insect cells
# T1 sequence (Q08881 363-615 limits assumed): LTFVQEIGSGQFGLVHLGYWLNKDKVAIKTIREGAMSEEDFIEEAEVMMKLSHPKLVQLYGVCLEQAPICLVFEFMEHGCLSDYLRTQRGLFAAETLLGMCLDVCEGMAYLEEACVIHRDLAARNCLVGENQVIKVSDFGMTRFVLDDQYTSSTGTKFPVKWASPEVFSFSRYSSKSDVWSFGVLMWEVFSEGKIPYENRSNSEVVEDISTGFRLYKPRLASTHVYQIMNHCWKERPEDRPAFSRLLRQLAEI
# Assay: Itk LANCE TRF Assay
# Format: biochemical
# Conditions: 50 μM ATP, 2 μM biotinylated peptide substrate, 50 minutes RT; read-out: Inhibition of Kinase Itk (IC50 μM)
# Procedure: The Itk kinase assay utilized recombinant human Itk kinase domain fused with GST (Glutathione S-Transferase). The protein was expressed in High five insect cells, purified in one step on an affinity chromatography glutathione column and stored in 50 mM Tris/HCl (pH 7.6), 150 mM NaCl, 5% (w/v) mannitol, 1 mM DTT, 30% glycerol at −70° C. The kinase substrate used in the assay was a biotinylated peptide derived from the Src-optimal substrate (Nair et at, J. Med. Chem., 38: 4276, 1995; biotin-AEEEIYGEFEAKKKK).
# The assay additions were as follows: Test compounds (or controls; 1 μL in 100% DMSO) were added to black 96-well flat-bottomed plates (Greiner 655076) followed by 20 μL Itk in assay buffer and the reaction was started by adding 20 μL ATP and peptide substrate in assay buffer. The assay buffer constitution during phosphorylation was: 50 mM HEPES (pH 6.8), 10 mM MgCl2, 0.015% Brij 35, 1 mM DTT, 10% glycerol, 160 ng/well Itk, 2 μM peptide substrate and 50 μM ATP. The assay was stopped after 50 minutes (RT) by adding 150 μL ice-cold Stop solution (50 mM Tris/HCl, pH 7.5, 10 mM EDTA, 0.9% NaCl and 0.1% BSA) together with LANCE reagents (2 nM PT66-Eu^3+, Wallac AD0069 and 5 μg/ml Streptavidin-APC, Wallac AD0059. Both concentrations were final in stopped assay solution). The plates were measured on a Wallac 1420 Victor 2 instrument with TRF settings after 1 h incubation, and the ratio (665 signal/615 signal)*10000 was used to calculate the inhibition values. IC50 values were determined using XLfit.
row,IC50,Structure (SMILES)
1,0.09 µM,"COc1ccc(-c2[nH]c3ncc(Br)cc3c2N2CCNCC2)cc1 [Example 21, 5-Bromo-2-(4-methoxy-phenyl)-3-piperazin-1-yl-1H-pyrrolo[2,3-b]pyridine trifluoroacetate]"
2,0.18 µM,"CN(C)CCCOc1ccc(-c2[nH]c3ncc(Cl)cc3c2C2CCNCC2)cc1 [Example 8, {3-[4-(5-Chloro-3-piperidin-4-yl-1H-pyrrolo[2,3-b]pyridin-2-yl)phenoxy]propyl}dimethylamine]"
3,0.26 µM,"Cc1cnc2[nH]c(-c3ccco3)c(C3CCCN(C(N)=O)C3)c2c1 (stereo not drawn) [Example 5, 3-[2-(2-Furyl)-5-methyl-1H-pyrrolo[2,3-b]pyridin-3-yl]piperidine-1-carboxamide]"

# Reference: patent US20050215582A1, “Substituted pyrrolopyridines” (priority 2002, published 2005)
